Measured values: patent US20050064485A1, “Multiplex binding and activity assays” (priority 2003, published 2005)
pEC50: −log10 of the molar value.

Experiments:
[1] = target: T1, Epidermal Growth Factor Receptor (EGFR) Tyrosine Kinase (Homo sapiens, UniProt P00533); assay: EGFR kinase multiplex FP/TR-RET library screen and follow-up titration; assay type: biochemical; conditions: two-fold dilution series
T1 construct: purchased PanVera, Madison Wis; P2628

[2] = Precipitation of poorly correlating compounds in the EGFR kinase assay; assay type: physicochemical; conditions: EGFR kinase assay conditions
[3] = target: PTK labeled tracer F-ADE(pY)LIPQQS; assay: FP direct binding, antibody titrated (10 nM to 9.8 pM) against 1 nM tracer

T1 sequence (P00533 25-1210, species assumed): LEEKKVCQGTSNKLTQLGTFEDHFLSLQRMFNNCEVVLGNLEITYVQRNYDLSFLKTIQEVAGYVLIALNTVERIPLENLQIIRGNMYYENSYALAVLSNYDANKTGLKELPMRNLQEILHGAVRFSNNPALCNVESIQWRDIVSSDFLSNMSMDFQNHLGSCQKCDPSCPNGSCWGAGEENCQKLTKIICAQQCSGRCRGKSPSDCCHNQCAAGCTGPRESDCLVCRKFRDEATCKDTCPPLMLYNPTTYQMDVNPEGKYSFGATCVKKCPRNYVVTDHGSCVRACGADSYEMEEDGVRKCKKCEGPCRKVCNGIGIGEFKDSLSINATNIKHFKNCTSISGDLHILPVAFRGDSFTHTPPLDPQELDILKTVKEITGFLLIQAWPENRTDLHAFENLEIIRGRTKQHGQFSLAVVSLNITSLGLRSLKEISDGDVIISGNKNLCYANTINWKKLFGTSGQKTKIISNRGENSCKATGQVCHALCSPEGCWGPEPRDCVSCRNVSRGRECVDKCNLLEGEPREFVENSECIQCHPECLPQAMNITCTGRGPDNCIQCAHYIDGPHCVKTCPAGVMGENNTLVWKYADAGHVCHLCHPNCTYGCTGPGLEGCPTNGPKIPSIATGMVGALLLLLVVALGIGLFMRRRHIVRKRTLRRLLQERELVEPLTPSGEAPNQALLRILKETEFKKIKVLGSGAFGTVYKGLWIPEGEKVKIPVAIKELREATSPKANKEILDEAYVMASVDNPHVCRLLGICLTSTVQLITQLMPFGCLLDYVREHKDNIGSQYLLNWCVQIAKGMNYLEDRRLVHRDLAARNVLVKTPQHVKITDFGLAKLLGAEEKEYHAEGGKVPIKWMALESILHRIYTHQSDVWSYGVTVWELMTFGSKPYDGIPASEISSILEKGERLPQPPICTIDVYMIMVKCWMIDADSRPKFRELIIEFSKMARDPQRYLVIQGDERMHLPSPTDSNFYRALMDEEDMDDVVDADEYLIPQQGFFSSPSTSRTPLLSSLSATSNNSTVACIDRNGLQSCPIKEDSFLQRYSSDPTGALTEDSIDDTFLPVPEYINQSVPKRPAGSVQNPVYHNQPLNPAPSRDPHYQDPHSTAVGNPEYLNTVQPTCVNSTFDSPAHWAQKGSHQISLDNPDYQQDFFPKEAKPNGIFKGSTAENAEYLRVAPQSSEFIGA

## NC(=O)c1cc(N2CC2)c([N+](=O)[O-])cc1[N+](=O)[O-] [CB-1954, CB 1954]
[1]
  inhibitor on re-assay: neither was seen to be an inhibitor

## Oc1ccccc1O [Pyrocatechol]
[1]
  inhibitor on re-assay: neither was seen to be an inhibitor

## CC(C)[C@@]1(NC(=O)[C@@H]2C=C3c4cccc5[nH]cc(c45)C[C@H]3N(C)C2)O[C@@]2(O)[C@@H]3CCCN3C(=O)[C@H](Cc3ccccc3)N2C1=O [Ergocristine]
[2]
  precipitation in assay: precipitate

## Tb-chelate labeled PY72 (anti-phosphotyrosine) IgG antibody
[3]
  pEC50: 9.00

## O=C1Nc2ccc(I)cc2/C1=C/c1cc(Br)c(O)c(Br)c1 [GW5074]
[2]
  precipitation in assay: precipitate
